Biological target: T1, purified STAT1 protein (Homo sapiens, UniProt P42224)
T1 sequence (P42224 1-750): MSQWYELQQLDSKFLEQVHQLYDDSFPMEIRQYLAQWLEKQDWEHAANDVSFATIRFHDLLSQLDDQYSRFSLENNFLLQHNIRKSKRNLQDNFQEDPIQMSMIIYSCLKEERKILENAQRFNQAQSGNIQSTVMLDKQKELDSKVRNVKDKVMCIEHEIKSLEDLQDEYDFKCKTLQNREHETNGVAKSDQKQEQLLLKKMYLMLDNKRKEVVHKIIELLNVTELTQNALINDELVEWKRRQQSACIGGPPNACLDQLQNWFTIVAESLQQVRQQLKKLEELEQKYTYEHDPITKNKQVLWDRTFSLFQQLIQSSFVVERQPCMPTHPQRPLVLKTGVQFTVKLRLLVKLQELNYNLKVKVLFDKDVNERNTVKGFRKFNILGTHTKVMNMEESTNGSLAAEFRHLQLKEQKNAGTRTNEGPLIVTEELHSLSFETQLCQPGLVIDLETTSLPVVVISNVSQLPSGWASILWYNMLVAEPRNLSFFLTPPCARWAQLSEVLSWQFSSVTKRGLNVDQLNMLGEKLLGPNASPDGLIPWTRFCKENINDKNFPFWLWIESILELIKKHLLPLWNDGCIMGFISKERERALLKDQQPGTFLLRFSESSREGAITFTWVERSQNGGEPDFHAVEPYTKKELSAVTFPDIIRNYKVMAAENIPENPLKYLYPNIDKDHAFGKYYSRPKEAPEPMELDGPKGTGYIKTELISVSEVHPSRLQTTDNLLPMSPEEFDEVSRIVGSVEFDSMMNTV
Assay: Protein thermal shift (PTS) assay of STAT1
Format: binding
Conditions: for ΔTm at 0.02 µM: 20 nM
Protocol: FIG. 5 illustrates an embodiment of the present invention and illustrates evaluations of SIM-1 and SIM-2 as STAT3 inhibitors. (A) Protein thermal shift assay was performed to assess the melting of purified recombinant STAT3 (blue; 0.5 μg protein) (Tm=melting temperature=68.88° C.). The representative melting curves were derived after adding SIM-1 (red; 4 nM), SIM-2 (purple; 8 nM), and positive control stattic (grey; 20 nM) to the STAT3 protein. The differences of melting temperature (ΔTm) between pure protein and protein+ligands are −4.54° C., −4.16° C., and 0.39° C. for SIM-1, SIM-2, and stattic (ΔTm^cut-off>2° C.). (B) Phospho protein array analysis was conducted in cell lysates of MDA-MB-468 cells treated with DMSO control (top left), 25 ng/mL EGF (top right), EGF+10 nM SIM-1 (bottom left), and EGF+SIM-2 (bottom right) for 24 hrs. Each colored arrowhead represents a specific phosphoprotein, and the description was added in the bottom of array images. S=serine and Y=tyrosine. Relative levels of (C) Tyrosine 705 (Y705) phosphorylated STAT3, (D) Serine 727 (S727) phosphorylated STAT3, (E) Tyrosine 693 (Y693) phosphorylated STAT4, (F) Tyrosine 694 ([…]) phosphorylated STAT5A had been derived after normalizing the spot densities (n=5) with respective β-actin spots. Results are mean±SD of five different spot analyses. One-way ANOVA was adopted to test the significance of mean between groups at **p<0.01, and ****p<0.0001. Ns=no significance. Thermal shift assays of increasing doses of (G) SIM-1, (H) SIM-2, and (I) stattic with purified STAT1 protein (0.5 μg protein). The respective ΔTm values were given with the plot after matching with the color code. Similarly, full-length STAT5b protein melting was assessed with (J) SIM-1, (K) SIM-2, and (L) stattic. Results are confirmed after three different experiments.
To confirm the result, PTS assay of STAT1 with SIM-1 (FIG. 5G), SIM-2 (FIG. 5H), and stattic (FIG. 5I) was performed. […] Similar results were observed while performing the binding assay with STAT5b.

Row | SMILES | ΔTm at 0.02 µM | ΔTm of STAT1 (concentration printed only as 'nM' (figure missing)) | ΔTm at 0.01 µM (10 nM)
1 | O=C(O)CCC(=O)NCc1csc2ccc(Cl)cc12 [SIM-1, 4-[(5-chloro-1-benzothiophen-3-yl)methylamino]-4-oxobutanoic acid] | 0.29 °C | 0.41 °C | –
2 | CCOC(=O)c1c(NC(C)=O)sc2c(Cl)c(/C=N/O)ccc12 [SIM-2, ethyl 2-acetamido-7-chloro-6-(hydroxyiminomethyl)-1-benzothiophene-3-carboxylate] | 0.89 °C | – | 0.46 °C
